Test results: article PMC11239938, “Inhibition of DUSP18 impairs cholesterol biosynthesis and promotes anti-tumor immunity in colorectal cancer” (Nature Communications, 2024)

Key:
DUSP18 [1] = target: T1, DUSP18 (Homo sapiens, UniProt Q8NEJ0); experiment: in vitro dephosphorylation of Flag-USF1, phospho-immunoblot; assay type: biochemical; details: 40 μM Lumacaftor; recombinant GST-DUSP18-His; substrate Flag-USF1 WT
T1 construct: purified human DUSP18 for MST (Methods: cell samples lysed with RIPA buffer); recombinant GST-DUSP18-His for dephosphorylation assay; endogenous in HCT116 and SW480 cells for CETSA
T1 sequence (Q8NEJ0 1-188): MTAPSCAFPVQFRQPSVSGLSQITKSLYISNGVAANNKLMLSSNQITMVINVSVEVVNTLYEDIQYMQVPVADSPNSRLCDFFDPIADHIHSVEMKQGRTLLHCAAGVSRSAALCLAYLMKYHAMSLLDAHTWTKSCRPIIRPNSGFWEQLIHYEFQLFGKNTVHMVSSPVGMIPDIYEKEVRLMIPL

DUSP18 [2] = target: T1, DUSP18; experiment: microscale thermophoresis
Experimental: microscale thermophoresis on DUSP18 | Kd) value was determined as the binding of Lumacaftor to purified human DUSP18

With `Cc1ccc(NC(=O)C2(c3ccc4c(c3)OC(F)(F)O4)CC2)nc1-c1cccc(C(=O)O)c1` [Lumacaftor] the “in vitro dephosphorylation of Flag-USF1, phospho-immunoblot” value (DUSP18 [1]) was “Lumacaftor inhibited the ability of purified DUSP18 to dephosphorylate WT USF1” and the Kd (DUSP18 [2]) was 29.5 ± 3.5 µM.
